Experimental data reported in ChEMBL document CHEMBL4507261, “Data for DCP probe A-192621” (2021).

What was measured:
[1] = target: Muscarinic acetylcholine receptor M3 (Homo sapiens) (UniProt P20309); test: M3 (h) Eurofins-Cerep binding assay; parameters: ligand concentration 0.2 nM; conditions: filed as antagonist, Compound concentration 10.0 uM
[2] = target: Peroxisome proliferator-activated receptor gamma (Homo sapiens) (UniProt P37231); test: PPARgamma (h) Eurofins-Cerep binding assay; parameters: ligand concentration 5 nM; conditions: filed as agonist, Compound concentration 10.0 uM
[3] = target: Sigma non-opioid intracellular receptor 1 (Homo sapiens) (UniProt Q99720); test: sigma (non-selective) (h) Eurofins-Cerep binding assay; parameters: ligand concentration 10 nM; conditions: filed as agonist, Compound concentration 10.0 uM
Sigma non-opioid intracellular receptor 1 (Homo sapiens), sequence (Q99720 whole entry): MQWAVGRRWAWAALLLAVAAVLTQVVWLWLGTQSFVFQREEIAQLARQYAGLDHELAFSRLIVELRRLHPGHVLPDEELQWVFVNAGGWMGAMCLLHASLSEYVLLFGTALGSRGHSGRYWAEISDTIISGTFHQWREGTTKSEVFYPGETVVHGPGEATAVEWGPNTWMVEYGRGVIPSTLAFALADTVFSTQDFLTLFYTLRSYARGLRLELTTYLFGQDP

[4] = target: GABA-A receptor; anion channel (Rattus norvegicus) (UniProt O09028+P15431+P18506+P18508+P19969+P20236+P23574+P23576+P28471+P28473+P30191+P62813+P63079+P63138+Q91ZM7+Q9ES14); test: Cl- channel (GABA-gated) Eurofins-Cerep binding assay; assay type: protein-complex assay; parameters: ligand concentration 3 nM; conditions: filed as antagonist, Compound concentration 10.0 uM
[5] = system: Tyrosine-protein kinase ABL1 (Homo sapiens), P00519 [E255K]; conditions: Compound concentration 1000.0 nM
[6] = system: Tyrosine-protein kinase ABL1 (Homo sapiens), P00519 [F317L]; conditions: Compound concentration 1000.0 nM
[7] = system: Tyrosine-protein kinase ABL1 (Homo sapiens), P00519 [Q252H]; conditions: Compound concentration 1000.0 nM
[8] = target: Activin receptor type-2A (Homo sapiens) (UniProt P27037); conditions: Compound concentration 1000.0 nM
[9] = target: Tyrosine-protein kinase receptor UFO (Homo sapiens) (UniProt P30530); conditions: Compound concentration 1000.0 nM
[10] = target: Bone morphogenetic protein receptor type-1A (Homo sapiens) (UniProt P36894); conditions: Compound concentration 1000.0 nM
[11] = target: Protein-tyrosine kinase 6 (Homo sapiens) (UniProt Q13882); conditions: Compound concentration 1000.0 nM
[12] = target: Calcium/calmodulin-dependent protein kinase type 1D (Homo sapiens) (UniProt Q8IU85); conditions: Compound concentration 1000.0 nM
[13] = target: Cyclin-dependent kinase 4 (Homo sapiens) (UniProt P11802); conditions: Compound concentration 1000.0 nM
[14] = target: Dual specificity protein kinase CLK3 (Homo sapiens) (UniProt P49761); conditions: Compound concentration 1000.0 nM
Dual specificity protein kinase CLK3 (Homo sapiens), sequence (P49761 whole entry, looked up): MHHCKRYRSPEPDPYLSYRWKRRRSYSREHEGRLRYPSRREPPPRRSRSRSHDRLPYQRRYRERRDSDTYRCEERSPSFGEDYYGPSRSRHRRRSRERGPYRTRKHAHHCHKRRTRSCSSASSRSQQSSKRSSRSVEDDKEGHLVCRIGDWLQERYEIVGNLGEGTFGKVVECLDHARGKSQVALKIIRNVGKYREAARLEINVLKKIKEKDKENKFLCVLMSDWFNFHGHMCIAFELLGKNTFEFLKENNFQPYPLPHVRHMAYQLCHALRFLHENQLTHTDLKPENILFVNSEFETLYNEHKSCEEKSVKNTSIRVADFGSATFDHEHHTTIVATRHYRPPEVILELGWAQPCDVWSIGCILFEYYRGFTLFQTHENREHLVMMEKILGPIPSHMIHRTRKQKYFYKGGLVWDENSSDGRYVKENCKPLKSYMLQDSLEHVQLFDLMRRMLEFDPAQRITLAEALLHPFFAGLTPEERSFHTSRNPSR

[15] = target: Serine/threonine-protein kinase 17A (Homo sapiens) (UniProt Q9UEE5); conditions: Compound concentration 1000.0 nM
[16] = system: Epidermal growth factor receptor (Homo sapiens), P00533 [G719C]; conditions: Compound concentration 1000.0 nM
[17] = target: Ephrin type-A receptor 7 (Homo sapiens) (UniProt Q15375); conditions: Compound concentration 1000.0 nM
[18] = target: Ephrin type-A receptor 8 (Homo sapiens) (UniProt P29322); conditions: Compound concentration 1000.0 nM
[19] = target: Ephrin type-B receptor 6 (Homo sapiens) (UniProt O15197); conditions: Compound concentration 1000.0 nM
[20] = target: Glycogen synthase kinase-3 beta (Homo sapiens) (UniProt P49841); conditions: Compound concentration 1000.0 nM
[21] = target: Tyrosine-protein kinase JAK1 (Homo sapiens) (UniProt P23458); conditions: Compound concentration 1000.0 nM
Tyrosine-protein kinase JAK1 (Homo sapiens), sequence (P23458 whole entry): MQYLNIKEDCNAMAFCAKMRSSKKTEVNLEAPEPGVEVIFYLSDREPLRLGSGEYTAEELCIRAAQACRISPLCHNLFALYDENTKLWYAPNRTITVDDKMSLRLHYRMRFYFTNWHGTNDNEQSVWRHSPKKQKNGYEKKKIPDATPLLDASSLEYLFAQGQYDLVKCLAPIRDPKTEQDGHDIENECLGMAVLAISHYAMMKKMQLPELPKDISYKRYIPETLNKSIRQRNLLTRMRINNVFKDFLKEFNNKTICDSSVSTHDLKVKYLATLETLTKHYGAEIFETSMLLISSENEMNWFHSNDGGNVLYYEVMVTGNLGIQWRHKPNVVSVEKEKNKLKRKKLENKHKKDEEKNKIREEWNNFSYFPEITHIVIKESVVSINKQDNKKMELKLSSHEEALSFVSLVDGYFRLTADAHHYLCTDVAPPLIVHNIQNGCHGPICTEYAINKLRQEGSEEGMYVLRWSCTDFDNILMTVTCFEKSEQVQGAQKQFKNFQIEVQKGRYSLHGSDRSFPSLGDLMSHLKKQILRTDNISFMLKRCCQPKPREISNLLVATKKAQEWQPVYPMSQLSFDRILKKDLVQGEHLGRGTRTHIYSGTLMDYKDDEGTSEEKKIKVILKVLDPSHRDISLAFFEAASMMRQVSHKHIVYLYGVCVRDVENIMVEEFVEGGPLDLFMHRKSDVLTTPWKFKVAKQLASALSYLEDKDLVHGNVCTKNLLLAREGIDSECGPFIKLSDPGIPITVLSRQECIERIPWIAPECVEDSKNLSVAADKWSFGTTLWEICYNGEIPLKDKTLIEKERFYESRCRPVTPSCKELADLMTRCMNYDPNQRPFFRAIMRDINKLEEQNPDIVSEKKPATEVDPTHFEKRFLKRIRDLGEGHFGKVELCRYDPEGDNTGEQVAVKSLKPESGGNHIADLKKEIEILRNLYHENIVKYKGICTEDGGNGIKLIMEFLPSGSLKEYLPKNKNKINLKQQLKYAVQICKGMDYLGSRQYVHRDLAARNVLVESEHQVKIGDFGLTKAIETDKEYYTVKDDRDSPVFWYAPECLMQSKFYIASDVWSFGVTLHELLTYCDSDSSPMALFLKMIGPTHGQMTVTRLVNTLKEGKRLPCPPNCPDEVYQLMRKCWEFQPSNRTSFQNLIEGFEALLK

[22] = target: Mitogen-activated protein kinase 8 (Homo sapiens) (UniProt P45983); conditions: Compound concentration 1000.0 nM
[23] = target: Mast/stem cell growth factor receptor Kit (Homo sapiens) (UniProt P10721); conditions: Compound concentration 1000.0 nM
[24] = target: Leukocyte tyrosine kinase receptor (Homo sapiens) (UniProt P29376); conditions: Compound concentration 1000.0 nM
[25] = target: Tyrosine-protein kinase Lyn (Homo sapiens) (UniProt P07948); conditions: Compound concentration 1000.0 nM
[26] = target: Dual specificity mitogen-activated protein kinase kinase 7 (Homo sapiens) (UniProt O14733); conditions: Compound concentration 1000.0 nM
Dual specificity mitogen-activated protein kinase kinase 7 (Homo sapiens), sequence (O14733 whole entry): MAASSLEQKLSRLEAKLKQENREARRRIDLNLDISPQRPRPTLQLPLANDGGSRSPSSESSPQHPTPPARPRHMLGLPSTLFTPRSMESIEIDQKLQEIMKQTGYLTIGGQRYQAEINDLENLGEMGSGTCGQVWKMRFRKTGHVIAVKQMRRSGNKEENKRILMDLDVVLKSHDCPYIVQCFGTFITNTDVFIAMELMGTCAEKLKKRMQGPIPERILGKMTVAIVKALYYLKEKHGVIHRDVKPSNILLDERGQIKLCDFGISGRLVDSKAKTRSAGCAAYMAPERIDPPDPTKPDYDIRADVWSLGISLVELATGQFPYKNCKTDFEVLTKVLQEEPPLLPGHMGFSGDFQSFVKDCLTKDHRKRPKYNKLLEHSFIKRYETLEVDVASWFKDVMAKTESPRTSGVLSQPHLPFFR

[27] = target: MAP kinase-interacting serine/threonine-protein kinase 1 (Homo sapiens) (UniProt Q9BUB5); conditions: Compound concentration 1000.0 nM
[28] = target: Mitogen-activated protein kinase kinase kinase 14 (Homo sapiens) (UniProt Q99558); conditions: Compound concentration 1000.0 nM
[29] = target: Cyclin-dependent kinase 18 (Homo sapiens) (UniProt Q07002); conditions: Compound concentration 1000.0 nM
Cyclin-dependent kinase 18 (Homo sapiens), sequence (Q07002 whole entry, canonical isoform): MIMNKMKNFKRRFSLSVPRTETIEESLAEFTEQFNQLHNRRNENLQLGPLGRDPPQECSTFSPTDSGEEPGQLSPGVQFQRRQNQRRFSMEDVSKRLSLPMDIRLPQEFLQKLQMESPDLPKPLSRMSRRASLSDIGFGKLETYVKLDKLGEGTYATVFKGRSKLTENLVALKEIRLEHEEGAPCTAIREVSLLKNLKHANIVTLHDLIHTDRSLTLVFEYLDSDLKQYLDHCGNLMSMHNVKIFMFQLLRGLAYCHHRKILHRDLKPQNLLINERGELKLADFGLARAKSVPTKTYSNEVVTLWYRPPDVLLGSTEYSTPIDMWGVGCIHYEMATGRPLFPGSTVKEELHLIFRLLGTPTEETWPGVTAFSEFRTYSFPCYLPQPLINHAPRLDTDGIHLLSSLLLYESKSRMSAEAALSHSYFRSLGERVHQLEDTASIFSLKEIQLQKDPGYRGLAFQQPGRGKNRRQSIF

[30] = system: Phosphatidylinositol 4,5-bisphosphate 3-kinase catalytic subunit alpha isoform (Homo sapiens), P42336 [H1047Y]; conditions: Compound concentration 1000.0 nM
[31] = target: Serine/threonine-protein kinase PLK1 (Homo sapiens) (UniProt P53350); conditions: Compound concentration 1000.0 nM
[32] = target: Serine/threonine-protein kinase PLK3 (Homo sapiens) (UniProt Q9H4B4); conditions: Compound concentration 1000.0 nM
Serine/threonine-protein kinase PLK3 (Homo sapiens), sequence (Q9H4B4 whole entry, looked up): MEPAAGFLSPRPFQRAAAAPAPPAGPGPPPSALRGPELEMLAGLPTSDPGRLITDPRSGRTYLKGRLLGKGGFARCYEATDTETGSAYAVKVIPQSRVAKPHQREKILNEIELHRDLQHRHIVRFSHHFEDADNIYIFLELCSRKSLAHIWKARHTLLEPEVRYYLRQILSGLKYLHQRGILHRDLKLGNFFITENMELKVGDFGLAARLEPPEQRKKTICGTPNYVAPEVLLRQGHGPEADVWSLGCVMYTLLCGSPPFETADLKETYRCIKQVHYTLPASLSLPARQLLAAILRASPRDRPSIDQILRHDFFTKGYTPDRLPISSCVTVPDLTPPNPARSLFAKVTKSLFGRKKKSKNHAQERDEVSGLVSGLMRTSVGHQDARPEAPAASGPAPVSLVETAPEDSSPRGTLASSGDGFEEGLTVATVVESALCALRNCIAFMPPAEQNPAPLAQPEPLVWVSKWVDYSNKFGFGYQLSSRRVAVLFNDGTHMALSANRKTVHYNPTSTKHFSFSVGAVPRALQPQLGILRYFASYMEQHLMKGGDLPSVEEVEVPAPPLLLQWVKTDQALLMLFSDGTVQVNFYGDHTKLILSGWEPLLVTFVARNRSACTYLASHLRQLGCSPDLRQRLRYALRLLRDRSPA

[33] = system: Proto-oncogene tyrosine-protein kinase receptor Ret (Homo sapiens), P07949 [M918T]; conditions: Compound concentration 1000.0 nM
[34] = system: Proto-oncogene tyrosine-protein kinase receptor Ret (Homo sapiens), P07949 [V804M]; conditions: Compound concentration 1000.0 nM
[35] = target: Ribosomal protein S6 kinase alpha-5 (Homo sapiens) (UniProt O75582); conditions: Compound concentration 1000.0 nM
Ribosomal protein S6 kinase alpha-5 (Homo sapiens), sequence (O75582 whole entry, looked up): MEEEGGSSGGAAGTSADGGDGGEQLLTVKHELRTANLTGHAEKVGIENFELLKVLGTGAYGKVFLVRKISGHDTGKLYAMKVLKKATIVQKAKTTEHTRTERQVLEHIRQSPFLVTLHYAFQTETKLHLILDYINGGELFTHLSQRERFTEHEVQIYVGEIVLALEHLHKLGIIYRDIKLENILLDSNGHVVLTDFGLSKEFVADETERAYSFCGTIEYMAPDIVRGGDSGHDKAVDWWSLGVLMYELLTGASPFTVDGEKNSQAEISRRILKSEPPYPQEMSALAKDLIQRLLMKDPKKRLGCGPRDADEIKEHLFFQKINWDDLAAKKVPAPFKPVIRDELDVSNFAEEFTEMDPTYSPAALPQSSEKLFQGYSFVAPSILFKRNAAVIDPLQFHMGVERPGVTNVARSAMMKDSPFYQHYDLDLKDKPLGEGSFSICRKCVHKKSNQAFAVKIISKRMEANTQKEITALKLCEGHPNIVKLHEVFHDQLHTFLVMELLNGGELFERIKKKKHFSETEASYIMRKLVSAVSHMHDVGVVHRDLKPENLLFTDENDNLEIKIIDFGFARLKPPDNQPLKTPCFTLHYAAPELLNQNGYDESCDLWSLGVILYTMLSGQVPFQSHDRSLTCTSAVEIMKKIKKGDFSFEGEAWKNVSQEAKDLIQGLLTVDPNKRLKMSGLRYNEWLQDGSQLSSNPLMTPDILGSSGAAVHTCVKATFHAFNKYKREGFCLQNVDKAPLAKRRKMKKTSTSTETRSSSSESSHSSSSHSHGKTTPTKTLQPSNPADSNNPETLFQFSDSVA

[36] = target: Serine/threonine-protein kinase SIK2 (Homo sapiens) (UniProt Q9H0K1); conditions: Compound concentration 1000.0 nM
[37] = target: Proto-oncogene tyrosine-protein kinase Src (Homo sapiens) (UniProt P12931); conditions: Compound concentration 1000.0 nM
[38] = target: Serine/threonine-protein kinase TBK1 (Homo sapiens) (UniProt Q9UHD2); conditions: Compound concentration 1000.0 nM
[39] = target: Angiopoietin-1 receptor (Homo sapiens) (UniProt Q02763); conditions: Compound concentration 1000.0 nM
[40] = target: TRAF2 and NCK-interacting protein kinase (Homo sapiens) (UniProt Q9UKE5); conditions: Compound concentration 1000.0 nM
[41] = target: Serine/threonine-protein kinase TNNI3K (Homo sapiens) (UniProt Q59H18); conditions: Compound concentration 1000.0 nM
[42] = target: Non-receptor tyrosine-protein kinase TYK2 (Homo sapiens) (UniProt P29597); conditions: Compound concentration 1000.0 nM
[43] = target: Serine/threonine-protein kinase ULK3 (Homo sapiens) (UniProt Q6PHR2); conditions: Compound concentration 1000.0 nM

Muscarinic acetylcholine receptor M3 (Homo sapiens), sequence (P20309 whole entry, looked up): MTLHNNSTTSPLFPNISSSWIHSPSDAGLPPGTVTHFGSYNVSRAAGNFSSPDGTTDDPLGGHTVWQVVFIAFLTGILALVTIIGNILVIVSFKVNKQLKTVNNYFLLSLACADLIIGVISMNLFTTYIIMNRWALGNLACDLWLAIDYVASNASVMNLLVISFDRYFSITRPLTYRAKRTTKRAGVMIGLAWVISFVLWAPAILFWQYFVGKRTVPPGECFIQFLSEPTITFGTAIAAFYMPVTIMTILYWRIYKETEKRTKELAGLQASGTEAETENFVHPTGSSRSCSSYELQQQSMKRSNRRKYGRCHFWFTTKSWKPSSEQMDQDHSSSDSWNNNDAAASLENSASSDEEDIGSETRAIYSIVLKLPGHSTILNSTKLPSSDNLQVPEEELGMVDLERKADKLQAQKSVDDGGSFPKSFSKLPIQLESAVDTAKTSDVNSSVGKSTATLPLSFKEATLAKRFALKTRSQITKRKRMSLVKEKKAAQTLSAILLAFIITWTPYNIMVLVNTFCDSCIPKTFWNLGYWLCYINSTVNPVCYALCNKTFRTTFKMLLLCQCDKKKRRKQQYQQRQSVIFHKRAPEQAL

CCCOc1ccc([C@@H]2[C@@H](C(=O)O)[C@H](c3ccc4c(c3)OCO4)CN2CC(=O)Nc2c(CC)cccc2CC)cc1 [A-1806262]
% Inhibition of Control Specific Binding (Mean n=2) [1]: -0.6%
% Inhibition of Control Specific Binding (Mean n=2) [2]: 67%
% Inhibition of Control Specific Binding (Mean n=2) [3]: -9.7%
% Inhibition of Control Specific Binding (Mean n=2) [4]: 60.8%
residual activity [5]: 82%
residual activity [6]: 82%
residual activity [7]: 92%
residual activity [8]: 100%
residual activity [9]: 93%
residual activity [10]: 89%
residual activity [11]: 83%
residual activity [12]: 97%
residual activity [13]: 84%
residual activity [14]: 93%
residual activity [15]: 92%
residual activity [16]: 98%
residual activity [17]: 92%
residual activity [18]: 97%
residual activity [19]: 77%
residual activity [20]: 100%
residual activity [21]: 88%
residual activity [22]: 87%
residual activity [23]: 82%
residual activity [24]: 100%
residual activity [25]: 96%
residual activity [26]: 91%
residual activity [27]: 73%
residual activity [28]: 82%
residual activity [29]: 100%
residual activity [30]: 100%
residual activity [31]: 95%
residual activity [32]: 88%
residual activity [33]: 97%
residual activity [34]: 94%
residual activity [35]: 99%
residual activity [36]: 96%
residual activity [37]: 100%
residual activity [38]: 100%
residual activity [39]: 86%
residual activity [40]: 100%
residual activity [41]: 84%
residual activity [42]: 81%
residual activity [43]: 83%

CCCOc1ccc([C@H]2[C@H](C(=O)O)[C@@H](c3ccc4c(c3)OCO4)CN2CC(=O)Nc2c(CC)cccc2CC)cc1 [A-192621]
% Inhibition of Control Specific Binding (Mean n=2) [1]: -11.3%
% Inhibition of Control Specific Binding (Mean n=2) [2]: 40.3%
% Inhibition of Control Specific Binding (Mean n=2) [3]: 39.3%
% Inhibition of Control Specific Binding (Mean n=2) [4]: 77.4%
residual activity [5]: 70%
residual activity [6]: 62%
residual activity [7]: 61%
residual activity [8]: 100%
residual activity [9]: 83%
residual activity [10]: 100%
residual activity [11]: 84%
residual activity [12]: 75%
residual activity [13]: 100%
residual activity [14]: 97%
residual activity [15]: 92%
residual activity [16]: 95%
residual activity [17]: 98%
residual activity [18]: 98%
residual activity [19]: 65%
residual activity [20]: 73%
residual activity [21]: 94%
residual activity [22]: 70%
residual activity [23]: 92%
residual activity [24]: 100%
residual activity [25]: 90%
residual activity [26]: 74%
residual activity [27]: 65%
residual activity [28]: 85%
residual activity [29]: 100%
residual activity [30]: 78%
residual activity [31]: 80%
residual activity [32]: 83%
residual activity [33]: 84%
residual activity [34]: 100%
residual activity [35]: 98%
residual activity [36]: 89%
residual activity [37]: 99%
residual activity [38]: 91%
residual activity [39]: 100%
residual activity [40]: 88%
residual activity [41]: 100%
residual activity [42]: 80%
residual activity [43]: 72%
